Molecular target: CFTR (Homo sapiens, UniProt P13569)
Assay: Membrane Potential Dye, Enteroid Assay B
Assay type: cell-based
Conditions: for EC50: read-out: Ent. B EC50
Description: Base medium (ADF+++) consisted of Advanced DMEM/Ham's F12, 2 mM Glutamax, 10 mM HEPES, 1 µg/mL penicillin/streptomycin.
Intestinal enteroid maintenance medium (IEMM) consisted of ADF+++, 1× B27 supplement, 1× N2 supplement, 1.25 mM N-acetyl cysteine, 10 mM Nicotinamide, 50 ng/mL hEGF, 10 nM Gastrin, 1 pg/mL hR-spondin-1, 100 ng/mL hNoggin, TGF-b type 1 inhibitor A-83-01, 100 μg/mL Primocin, […] P38 MAPK inhibitor SB202190.
Bath 1 Buffer consisted of 1 mM MgCl2, 160 mM NaCl, 4.5 mM KCl, 10 mM HEPES, 10 mM Glucose, 2 mM CaCl2).
Chloride Free Buffer consisted of 1 mM Magnesium Gluconate, 2 mM Calcium Gluconate, 4.5 mM Potassium Gluconate, 160 mM Sodium Gluconate, 10 mM HEPES, 10 mM Glucose.
Bath1 Dye Solution consisted of Bath 1 Buffer, 0.04% Pluronic F127, […] Methyl Oxonol, 30 μM CaCCinh-A01, 30 μM Chicago Sky Blue.
Chloride Free Dye Solution consisted of Chloride Free Buffer, 0.04% Pluronic F127, 20 μM Methyl Oxonol, 30 μM CaCCinh-A01, 30 μM Chicago Sky Blue.
Chloride Free Dye Stimulation Solution consisted of Chloride Free Dye Solution, 10 μM forskolin, 100 μM IBMX, and 300 nM Compound III.
Human intestinal epithelial enteroid cells were obtained from the Hubrecht Institute for Developmental Biology and Stem Cell Research, Utrecht, The Netherlands and expanded in T-Flasks as previously described (Dekkers J F, Wiegerinck C L, de Jonge H R, Bronsveld I, Janssens H M, de Winter-de Groot K M, Brandsma A M, de Jong N W M, Bijvelds M J C, Scholte B J, Nieuwenhuis E E S, van den Brink S, Clevers H, van der Ent C K, Middendorp S and M Beekman J M. A functional CFTR assay using primary cystic fibrosis intestinal organoids. Nat Med. 2013 July; 19(7):939-45.).
Cells were recovered in cell recovery solution, collected by centrifugation at 650 rpm for 5 min at 4° C., resuspended in TryPLE and incubated for 5 min at 37° C. Cells were then collected by centrifugation at 650 rpm for 5 min at 4° C. and resuspended in IEMM containing 10 μM ROCK inhibitor (RI). The cell suspension was passed through a 40 μm cell strainer and resuspended at 1×10^6 cells/mL in IEMM containing 10 μM RI. Cells were seeded at 5000 cells/well into multi-well plates and incubated for overnight at 37° C., 95% humidity and 5% CO2 prior to assay.
Enteroid cells were incubated with test compound in IEMM for 18-24 hours at 37° C., 95% humidity and 5% CO2. […] Briefly, cells were washed 5 times in Bath 1 Buffer. Bath 1 Dye Solution was added and the cells were incubated for 25 min at room temperature. Following dye incubation, cells were washed 3 times in Chloride Free Dye Solution. Chloride transport was initiated by addition of Chloride Free Dye Stimulation Solution and the fluorescence signal was read for 15 min. […] Chloride transport was then expressed as a percentage of the chloride transport following treatment with 1 μM (14S)-8-[3-(2-{Dispiro[2.0.2.1]heptan-7-yl}ethoxy)-1H-pyrazol-1-yl]-12,12-dimethyl-2λ^6-thia-3,9,11,18,23-pentaazatetracyclo[17.3.1.111,14.05,10]tetracosa-1(22),5,7,9,19(23),20-hexaene-2,2,4-trione, 3 μM (R)-1-(2,2-difluorobenzo[d][1,3]dioxol-5-yl)-N-(1-(2,3-dihydroxypropyl)-6-fluoro-2-(1-hydroxy-2-methylpropan-2-yl)-1H-indol-5-yl)cyclopropanecarboxamide and 300 nM acute N-[2,4-bis(1,1-dimethylethyl)-5-hydroxyphenyl]-1,4-dihydro-4-oxoquinoline-3-carboxamide triple combination control (% Activity).

CFTR, sequence (P13569 with tags, fused parts or gaps DEL508-508): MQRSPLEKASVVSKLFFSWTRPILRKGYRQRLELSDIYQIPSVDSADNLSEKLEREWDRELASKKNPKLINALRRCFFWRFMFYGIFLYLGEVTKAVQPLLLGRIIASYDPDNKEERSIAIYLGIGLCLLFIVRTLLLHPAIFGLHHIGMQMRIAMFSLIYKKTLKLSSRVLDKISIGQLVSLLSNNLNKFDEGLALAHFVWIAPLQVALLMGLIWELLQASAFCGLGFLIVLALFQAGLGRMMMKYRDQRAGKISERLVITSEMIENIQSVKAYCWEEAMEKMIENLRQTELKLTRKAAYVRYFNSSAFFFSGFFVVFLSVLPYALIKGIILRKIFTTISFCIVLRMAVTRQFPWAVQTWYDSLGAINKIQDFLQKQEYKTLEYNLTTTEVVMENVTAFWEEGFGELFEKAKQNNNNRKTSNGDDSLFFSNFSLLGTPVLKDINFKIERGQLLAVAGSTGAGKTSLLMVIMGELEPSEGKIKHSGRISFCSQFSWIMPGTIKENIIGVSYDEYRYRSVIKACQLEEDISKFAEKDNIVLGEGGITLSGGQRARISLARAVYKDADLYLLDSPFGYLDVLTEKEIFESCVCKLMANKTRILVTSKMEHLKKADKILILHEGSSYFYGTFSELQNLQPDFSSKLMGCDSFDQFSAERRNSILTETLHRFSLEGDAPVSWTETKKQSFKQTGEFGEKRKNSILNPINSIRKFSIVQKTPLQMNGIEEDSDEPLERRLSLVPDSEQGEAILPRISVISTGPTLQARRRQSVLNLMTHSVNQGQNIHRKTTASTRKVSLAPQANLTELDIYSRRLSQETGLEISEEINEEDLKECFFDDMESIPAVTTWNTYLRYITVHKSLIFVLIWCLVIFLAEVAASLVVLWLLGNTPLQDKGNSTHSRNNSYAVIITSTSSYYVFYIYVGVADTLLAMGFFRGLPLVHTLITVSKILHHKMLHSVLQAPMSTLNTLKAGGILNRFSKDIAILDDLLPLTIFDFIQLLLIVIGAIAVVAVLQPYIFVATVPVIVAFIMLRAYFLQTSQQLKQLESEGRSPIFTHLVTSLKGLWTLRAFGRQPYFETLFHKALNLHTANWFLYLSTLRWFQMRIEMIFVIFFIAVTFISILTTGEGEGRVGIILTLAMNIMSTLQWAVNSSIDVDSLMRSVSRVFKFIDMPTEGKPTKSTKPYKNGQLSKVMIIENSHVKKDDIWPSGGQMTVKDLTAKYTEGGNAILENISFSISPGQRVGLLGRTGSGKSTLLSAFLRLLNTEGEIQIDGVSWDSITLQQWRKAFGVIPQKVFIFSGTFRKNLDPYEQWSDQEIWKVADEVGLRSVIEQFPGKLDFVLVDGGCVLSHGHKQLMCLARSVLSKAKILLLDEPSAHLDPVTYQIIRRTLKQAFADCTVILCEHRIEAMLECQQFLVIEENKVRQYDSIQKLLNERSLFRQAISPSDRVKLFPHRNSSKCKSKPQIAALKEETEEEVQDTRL

Row | SMILES | Ent. B Max Activity | EC50 [nM]
1 | Cc1cccc(C)c1-c1nc2nc(c1C)OC[C@@H](CC(C)(C)C)N(C1CC3(CCN(C(=O)OC(C)C)CC3)C1)C(=O)c1cccc(c1)S(=O)(=O)N2 [Compound 77] | +++ (+++ is >60%) | < 1000
2 | Cc1cccc(C)c1-c1nc2nc(c1CN(C)C)OC[C@@H](CC(C)C)N(C1CC3(CC3)C1)C(=O)c1cccc(c1)S(=O)(=O)N2 [Compound 171, (11R)-7-[(Dimethylamino)methyl]-6-(2,6-dimethylphenyl)-11-isobutyl-2,2-dioxo-12-spiro[2.3]hexan-5-yl-9-oxa-2λ^6-thia-3,5,12,19-tetrazatricyclo[12.3.1.14,8]nonadeca-1(18),4(19),5,7,14,16-hexaen-13-one] | ++ (++ is 30-60%) | < 1000
3 | COC1CC(N2C(=O)c3cccc(c3)S(=O)(=O)Nc3nc(c(C)c(-c4c(C)cccc4C)n3)OC[C@H]2CC(C)(C)C)C1 (stereo partly shown) [Compound 83] | +++ (+++ is >60%) | < 1000
4 | [H][C@]1(N2C(=O)c3cccc(c3)S(=O)(=O)Nc3nc(c(C)c(-c4c(C)cccc4C)n3)OC[C@H]2CC(C)(C)C)C[C@@]2(C[C@H](C(C)(C)O)C2)C1 (single isomer, unassigned) [Compound 57] | +++ (+++ is >60%) | < 1000
5 | Cc1cccc(C)c1-c1nc2nc(c1C)OC[C@@H](CC(C)(C)O)N(C1CC3(CC3)C1)C(=O)c1cccc(c1)S(=O)(=O)N2 [Compound 108, (11R)-6-(2,6-Dimethylphenyl)-11-(2-hydroxy-2-methyl-propyl)-7-methyl-2,2-dioxo-12-spiro[2.3]hexan-5-yl-9-oxa-2λ^6-thia-3,5,12,19-tetrazatricyclo[12.3.1.14,8]nonadeca-1(18),4(19),5,7,14,16-hexaen-13-one] | +++ (+++ is >60%) | 1000 to 3000
6 | Cc1cccc(C)c1-c1nc2nc(c1C1=CCN(C(=O)OC(C)(C)C)CC1)OC[C@@H](C)NC(=O)c1cccc(c1)S(=O)(=O)N2 [Compound 136] | ++ (++ is 30-60%) | 1000 to 3000
7 | Cc1cccc(C)c1-c1nc2nc(c1C)OC[C@@H](CC1(C(F)(F)F)CC1)N(C1CC3(CC(CO)C3)C1)C(=O)c1cccc(c1)S(=O)(=O)N2 (stereo partly shown) [Compound 81] | +++ (+++ is >60%) | < 1000
8 | Cc1cccc(C)c1-c1nc2nc(c1C)OC[C@@H](CC(C)(C)O)N(Cc1ccc(C(C)(C)O)cc1)C(=O)c1cccc(c1)S(=O)(=O)N2 [Compound 114] | +++ (+++ is >60%) | < 1000
9 | Cc1cccc(C)c1-c1nc2nc(c1C1CCN(C(=O)OC(C)(C)C)CC1)O[C@H](C)CNC(=O)c1cccc(c1)S(=O)(=O)N2 [Compound 150] | ++ (++ is 30-60%) | 1000 to 3000
10 | Cc1cccc(C)c1-c1nc2nc(c1C)OC(c1ccc(CC3(C(F)(F)F)CC3)cn1)CN(C)C(=O)c1cccc(c1)S(=O)(=O)N2 (stereo not shown) [Compound 205] | +++ (+++ is >60%) | < 1000
11 | Cc1cccc(C)c1-c1nc2nc(c1C)OC[C@@H](CC(C)(C)C)NC(=O)c1cccc(c1)S(=O)(=O)N2 [Compound 102] | +++ (+++ is >60%) | < 1000
12 | Cc1cccc(C)c1-c1nc2nc(c1C)OC[C@@H](CC(C)(C)C(F)(F)F)N(C1CC3(CCN(C(=O)OC(C)C)CC3)C1)C(=O)c1cccc(c1)S(=O)(=O)N2 [Compound 184] | +++ (+++ is >60%) | < 1000
13 | Cc1cccc(C)c1-c1nc2nc(c1C)OC[C@@H](CC(C)(C)C)N(C1CC3(CCN(C(=O)OC(C)(C)C)CC3)C1)C(=O)c1cccc(c1)S(=O)(=O)N2 [Compound 82] | +++ (+++ is >60%) | < 1000
14 | COCCN1CCC2(CC1)CC(N1C(=O)c3cccc(c3)S(=O)(=O)Nc3nc(c(C)c(-c4c(C)cccc4C)n3)OC[C@H]1CC(C)C)C2 [Compound 55, (11R)-6-(2,6-Dimethylphenyl)-11-isobutyl-12-[7-(2-methoxyethyl)-7-azaspiro[3.5]nonan-2-yl]-7-methyl-2,2-dioxo-9-oxa-2λ^6-thia-3,5,12,19-tetrazatricyclo[12.3.1.14,8]nonadeca-1(18),4(19),5,7,14,16-hexaen-13-one] | +++ (+++ is >60%) | < 1000
15 | Cc1cccc(C)c1-c1nc2nc(c1C#N)OC[C@@H](CC(C)C)NC(=O)c1cccc(c1)S(=O)(=O)N2 [Compound 169, (11R)-6-(2,6-Dimethylphenyl)-11-isobutyl-2,2,13-trioxo-9-oxa-2λ^6-thia-3,5,12,19-tetrazatricyclo[12.3.1.14,8]nonadeca-1(18),4(19),5,7,14,16-hexaene-7-carbonitrile] | +++ (+++ is >60%) | 3000 to 30000
16 | Cc1cccc(C)c1-c1nc2nc(c1C)OC[C@@H](CC(C)C)N(C1CC3(CC3)C1)C(=O)c1cccc(c1)S(=O)(=O)N2 [Compound 75] | +++ (+++ is >60%) | < 1000
17 | COC(=O)N1CCC2(CC1)CC(N1C(=O)c3cccc(c3)S(=O)(=O)Nc3nc(c(C)c(-c4c(C)cccc4C)n3)OC[C@H]1CC(C)(C)C(F)(F)F)C2 [Compound 183] | +++ (+++ is >60%) | < 1000
18 | COC1CC(N2C(=O)c3cccc(c3)S(=O)(=O)Nc3nc(c(C)c(-c4c(C)cccc4C)n3)OC[C@H]2CC2(C(F)(F)F)CC2)C1 (stereo partly shown) [Compound 99] | +++ (+++ is >60%) | < 1000
19 | Cc1cccc(C)c1-c1nc2nc(c1C)OC[C@@H](CC(C)(C)C)N(C1CC3(CC(CO)C3)C1)C(=O)c1cccc(c1)S(=O)(=O)N2 (stereo in doubt) [Compound 79] | +++ (+++ is >60%) | < 1000
20 | Cc1cccc(C)c1-c1nc2nc(c1CCC(C)(C)C)OC[C@@H](C)NC(=O)c1cccc(c1)S(=O)(=O)N2 [Compound 125, (11R)-7-(3,3-Dimethylbutyl)-6-(2,6-dimethylphenyl)-11-methyl-2,2-dioxo-9-oxa-2λ^6-thia-3,5,12,19-tetrazatricyclo[12.3.1.14,8]nonadeca-1(18),4(19),5,7,14,16-hexaen-13-one] | ++ (++ is 30-60%) | < 1000
21 | Cc1cccc(C)c1-c1nc2nc(c1F)OC[C@@H](CC(C)C)N(C1CC3(CCNCC3)C1)C(=O)c1cccc(c1)S(=O)(=O)N2 [Compound 186] | ++ (++ is 30-60%) | < 1000
22 | Cc1cccc(C)c1-c1nc2nc(c1C)OC[C@@H](CC1(C(F)(F)F)CC1)N(C1CC3(CC(N(C)C)C3)C1)C(=O)c1cccc(c1)S(=O)(=O)N2 (stereo in doubt) [Compound 90] | +++ (+++ is >60%) | < 1000
23 | Cc1cccc(C)c1-c1nc2nc(c1-c1cnn(C)c1)O[C@H](C)CNC(=O)c1cccc(c1)S(=O)(=O)N2 [Compound 128] | + (+ is <30%) | –
24 | Cc1cccc(C)c1-c1nc2nc(c1C)OC[C@@H](CC(C)(C)C)N(C1CC3(CC(N(C)C)C3)C1)C(=O)c1cccc(c1)S(=O)(=O)N2 (stereo partly shown) [Compound 94] | +++ (+++ is >60%) | < 1000
25 | Cc1cccc(C)c1-c1nc2nc(c1CO)OC[C@@H](CC(C)C)N(C1CC3(CC3)C1)C(=O)c1cccc(c1)S(=O)(=O)N2 [Compound 170, (11R)-6-(2,6-Dimethylphenyl)-7-(hydroxymethyl)-11-isobutyl-2,2-dioxo-12-spiro[2.3]hexan-5-yl-9-oxa-2λ^6-thia-3,5,12,19-tetrazatricyclo[12.3.1.14,8]nonadeca-1(18),4(19),5,7,14,16-hexaen-13-one] | ++ (++ is 30-60%) | < 1000
